The term EC50 denotes the concentration needed to bring the measured effect to its halfway point. A low value points to greater potency. In general, ED50 refers to the midpoint of the dose-response relation.

The text below walks through data of patent publication US11325913B2, “Compounds and methods for the treatment of malaria” (THE BROAD INSTITUTE, INC., priority 2013, dated 2022).

The subject of test [1] is P. berghei strain ANKA. As to the kind of experiment: In vivo antimalarial activity, mice infected with P. berghei strain ANKA, three daily oral doses. The conditions noted are these: 50 mg/kg orally, three consecutive daily doses (24, 48, 72 h after infection), day 4, relative to control group. The arrangement: species or system NMVRI mice. The protocol: In vivo antimalarial activity for certain compounds of the invention was assessed for groups of three-five female NMVRI mice ([…]) intravenously infected on day 0 with P. berghei strain ANKA (2×10^7 parasitized erythrocytes per ml). In control mice, parasitemia typically rose to ˜40% by day 3 after infection, and control mice died between day 5 and day 7 after infection. Compounds with a dosage of 50 mg/kg were formulated in 7% Tween80/3% ethanol and were administered orally as three consecutive daily doses (24, 48, and 72 h after infection). The blood smears were collected and stained on day 4 after infection. The degree of infection (parasitemia expressed as percent infected erythrocytes) was determined microscopically, with a detection limit of 1 parasite in 10,000 erythrocytes (that is, 0.01%). Activity was calculated as the difference between the mean percent parasitemia for the control and treated groups expressed as a percent relative to the control group. Using this method, a compound of the invention (8R,9R,10S)-10-(hydroxymethyl)-N-(4-methoxyphenyl)-9-(4-(phenylethynyl)phenyl)-1,6-diazabicyclo[6.2.0]decane-6-carboxamide (compound 27) reduced parasitaemia by 57% on day 4. […] Quantification was conducted by comparison to a calibration curve prepared using blank plasma and processed in the same way as the samples.

The test system of test [2] is P. falciparum Dd2. The test can be described thus: Activity against the Dd2 strain of P. falciparum (SYBR Green I, 72 h). The conditions noted are these: Plasmodium falciparum, DD2, 72 h, P. falciparum Dd2, 72 h incubation. Type of test: cell-based. In outline: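 Parasites in human RBCs at 1% parasitemia and 1.0% hematocrit, exposed to compounds (0.125% DMSO) for 72 h at 37°C under 93% N2/4% CO2/3% O2. SYBR Green I in saponin/Triton lysis buffer added, 24 h staining, fluorescence read at 485/530 nm. EC50 derived against 20 μM mefloquine background and DMSO baseline.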

The subject of test [3] is P. berghei (ANKA GFP-luc) blood stage parasites. The test can be described thus: Single dose in vivo efficacy, P. berghei blood stage, bioluminescence imaging. The arrangement: species or system CD-1 mice. The protocol: CD-1 mice (female, 6-7-week-old) were inoculated with 1×10^6 P. berghei (ANKA GFP-luc) blood stage parasites intravenously 24 hours before treatment and compounds were administered as a single 100 or 50 mg/kg dose orally at 0 hour. Parasitemia was monitored by the In vivo Imaging System (IVIS 100, Xenogen; Caliper Life Science) to acquire the bioluminescence signal. Animals with parasitemia exceeding 25% were euthanized.
Infection proceeds rapidly in untreated mice (control), which were euthanized around day 6 of the study. Compound 37 and 68 were tested at different times; thus the artesunate control (ART) is shown for each compound. […] All images are normalized to the same color scale.

The test system of test [4] is P. berghei (ANKA luc-GFP) sporozoites. The test can be described thus: In vivo P. berghei liver stage assay. The arrangement: species or system CD-1 mice. Conditions: single PO dose. The protocol: CD-1 mice were inoculated (IV) with 1×10^5 P. berghei (ANKA luc-GFP) sporozoites freshly dissected out from A. stephensi and immediately treated with a single dose (PO) of vehicle or compound 37 (25, 5.0, 1.0 or 0.2 mg/kg) at 0 hour. Bioluminescence signals from the transgenic parasites were monitored by the In vivo Imaging System (IVIS 100, Xenogen; Caliper Life Science).
The ED50 for compound 37 in this assay was 1 mg/kg.

Test [5] has as its system P. berghei (ANKA GFP-luc). As to the kind of experiment: Prevention of transmission of P. berghei to mosquitoes (oocyst count in midguts). Conditions: single ascending doses (all doses), mosquitoes fed Day 2, midguts dissected Day 9. Type of test: in vivo, CD-1 mice / Anopheles stephensi mosquitoes. The protocol:
CD-1 mice were infected with P. berghei (ANKA GFP-luc) for 96 hours prior to treatment with vehicle [70% PEG400 and 30% (5% glucose in H2O)] or single ascending doses of compound 37 (Day 0). Average % parasitemia on Day 0 was 2.1%. On Day 2 of the study, mice were anesthetized and female Anopheles stephensi mosquitoes were allowed to feed on the mice for 20 minutes. On Day 9, the midguts of the mosquitoes were dissected out, and oocysts were enumerated microscopically (12.5× magnification, oocysts visible as puncta in the control, FIG. 2, Panel A).

Setting [6] is: single oral dose, P. berghei blood stage.

With `COc1ccc(NC(=O)N2CCCCN3[C@H](CO)[C@H](c4ccc(C#Cc5ccccc5)cc4)[C@@H]3C2)cc1` [Compound 27, (8R,9R,10S)-10-(hydroxymethyl)-N-(4-methoxyphenyl)-9-(4-(phenylethynyl)phenyl)-1,6-diazabicyclo[6.2.0] decane-6-carboxamide], the reduction of parasitaemia in test [1] was found to be 57%. In test [2], this compound returned an EC50 of 4 nM.

Take `COc1ccc(NC(=O)N2CCCCN3[C@H](CN)[C@H](c4ccc(C#Cc5ccccc5)cc4)[C@@H]3C2)cc1` [Compound 37, (8R,9S,10S)-10-(aminomethyl)-N-(4-methoxyphenyl)-9-[4-(2-phenylethynyl)phenyl]-1,6-diazabicyclo[6.2.0] decane-6-carboxamide]: in test [3] (single 100 mg/kg oral dose), the time parasitemia repressed result is on record as “about 1 week”. The same compound showed an ED25 in test [3] (setting [6]) of 100 mg/kg. The same compound returned an EC50 in test [2] of 148 nM. This compound also showed an ED50 in test [4] (Plasmodium berghei, in Mus musculus, liver stage) of 1 mg/kg. The “parasitemia after sporozoite inoculation” value in test [4] (dosed at ≥5 mg/kg) was “remained parasite free”. Further, in test [5], the “oocysts in mosquito midguts” value is “no detectable oocysts”.

Consider `COc1ccc(NC(=O)N2CCCCN3[C@H](CN(C)C)[C@H](c4ccc(C#Cc5ccccc5)cc4)[C@@H]3C2)cc1` [Compound 68, (8R,9S,10S)-10-[(dimethylamino)methyl]-N-(4-methoxyphenyl)-9-[4-(2-phenylethynyl)phenyl]-1,6-diazabicyclo[6.2.0] decane-6-carboxamide], for which the “cure of the infected animals” value in test [3] (single 50 mg/kg oral dose) turned out to be 100%. In test [3] (setting [6]), this compound came in with an ED100 of at most 50 mg/kg. The midpoint of the response in test [2], the EC50, lay at 3 nM.
